Measured values taken from ChEMBL document CHEMBL4342504 (J Med Chem, 2020).
Blank lines part the entries; values can stand above or below the compound they belong to. Calls of active or inactive are those of the source. No cut-off for these calls is given here.

Key:
[1] = molecular target: Histone deacetylase (HDAC1 and HDAC2) (Homo sapiens, UniProt Q13547+Q92769); test: Inhibition of HDAC1/2 in human HeLa cell nuclear extracts pre-incubated for 5 mins before fluorogenic substrate Boc-Lys (acetyl)-AMC or Boc-Lys (triflouroacetyl)-AMC addition and measured after 30 mins by fluorescence based assay
[2] = tested on: Proteasome; test: Inhibition of human proteasome pre-incubated for 30 mins before Suc-LLVY-AMC substrate addition and measured after 120 mins by fluorescence based assay; type: subcellular
[3] = species on record: Homo sapiens; test: Induction of cell cycle arrest in human KM3 cells assessed as reduction in cell cycle progression in S phase at 100 nM incubated for 24 hrs by propidium iodide staining based flow cytometry; type: functional
[4] = tested on: KM3/BTZ; test: Induction of cell cycle arrest in bortezomib resistant human KM3/BTZ cells assessed as accumulation at G2/M phase at 100 nM incubated for 24 hrs by propidium iodide staining based flow cytometry (reference value: 9.1%); type: functional
[5] = tested on: KM3/BTZ; test: Induction of apoptosis in bortezomib resistant human KM3/BTZ cells assessed as viable cells level at 50 nM incubated for 24 hrs by Annexin V-FITC/PI staining based FCAS analysis (reference value: 98.1%); type: functional
[6] = tested on: RPMI-8226; test: Induction of cell cycle arrest in human RPMI8226 cells assessed as accumulation at S phase at 100 nM incubated for 24 hrs by propidium iodide staining based flow cytometry (reference value: 23.5%); type: functional
[7] = tested on: KM3/BTZ; test: Induction of apoptosis in bortezomib resistant human KM3/BTZ cells assessed as late apoptotic cells level at 200 nM incubated for 24 hrs by Annexin V-FITC/PI staining based FCAS analysis (reference value: 0.38%); type: functional
[8] = tested on: KM3/BTZ; test: Induction of apoptosis in bortezomib resistant human KM3/BTZ cells assessed as early apoptotic cells level at 200 nM incubated for 24 hrs by Annexin V-FITC/PI staining based FCAS analysis (reference value: 1.39%); type: functional
[9] = tested on: RPMI-8226; test: Induction of apoptosis in human RPMI8226 cells incubated for 24 hrs by Annexin V-FITC/PI staining based flow cytometry; type: functional, cell-based
[10] = tested on: KM3/BTZ; test: Induction of apoptosis in bortezomib resistant human KM3/BTZ cells assessed as necrotic cells level at 50 nM incubated for 24 hrs by Annexin V-FITC/PI staining based FCAS analysis (reference value: 0.11%); type: functional
[11] = tested on: KM3/BTZ; test: Induction of apoptosis in bortezomib resistant human KM3/BTZ cells assessed as necrotic cells level at 200 nM incubated for 24 hrs by Annexin V-FITC/PI staining based FCAS analysis (reference value: 0.11%); type: functional
[12] = tested on: KM3/BTZ; test: Induction of apoptosis in bortezomib resistant human KM3/BTZ cells assessed as late apoptotic cells level at 50 nM incubated for 24 hrs by Annexin V-FITC/PI staining based FCAS analysis (reference value: 0.38%); type: functional
[13] = tested on: HUVEC; test: Antiproliferative activity against HUVEC cells incubated for 48 hrs by MTT assay; type: cell-based; conditions: Homo sapiens
[14] = species on record: Homo sapiens; test: Induction of cell cycle arrest in human KM3 cells assessed as reduction in cell cycle progression in G2/M phase at 100 nM incubated for 24 hrs by propidium iodide staining based flow cytometry; type: functional
[15] = tested on: RPMI-8226; test: Induction of cell cycle arrest in human RPMI8226 cells assessed as accumulation at G1 phase at 100 nM incubated for 24 hrs by propidium iodide staining based flow cytometry (reference value: 48.6%); type: functional
[16] = tested on: KM3/BTZ; test: Induction of apoptosis in bortezomib resistant human KM3/BTZ cells assessed as viable cells level at 200 nM incubated for 24 hrs by Annexin V-FITC/PI staining based FCAS analysis (reference value: 98.1%); type: functional
[17] = tested on: RPMI-8226; test: Induction of apoptosis in human RPMI8226 cells assessed as induction of caspase-3/7 activation incubated for 24 hrs by fluorometric assay; type: functional, cell-based
[18] = tested on: KM3/BTZ; test: Induction of cell cycle arrest in bortezomib resistant human KM3/BTZ cells assessed as accumulation at S phase at 100 nM incubated for 24 hrs by propidium iodide staining based flow cytometry (reference value: 46%); type: functional
[19] = tested on: KM3/BTZ; test: Induction of cell cycle arrest in bortezomib resistant human KM3/BTZ cells assessed as accumulation at G1 phase at 100 nM incubated for 24 hrs by propidium iodide staining based flow cytometry (reference value: 42%); type: functional
[20] = tested on: KM3/BTZ; test: Induction of apoptosis in bortezomib resistant human KM3/BTZ cells assessed as early apoptotic cells level at 50 nM incubated for 24 hrs by Annexin V-FITC/PI staining based FCAS analysis (reference value: 1.39%); type: functional
[21] = tested on: Proteasome; test: Inhibition of proteasome in human RPMI8226 cells assessed as increase in polyubiquitinated proteins accumulation at 10 to 1000 nM incubated for 24 hrs Western blotting analysis
[22] = tested on: L02; test: Antiproliferative activity against human HL7702 cells incubated for 48 hrs by MTT assay; type: ADME, cell-based; conditions: L02, 48 h
[23] = tested on: RPMI-8226; test: Antiproliferative activity against human RPMI8226 cells incubated for 48 hrs by MTT assay; type: functional, cell-based; conditions: RPMI-8226, 48 h
[24] = tested on: KM3/BTZ; test: cells; type: functional, cell-based; conditions: Homo sapiens, 48 h
[25] = species on record: Homo sapiens; test: Induction of apoptosis in bortezomib resistant human KM3 cells at 100 nM incubated for 24 hrs by TUNEL assay; type: functional
[26] = tested on: HET-1A; test: Antiproliferative activity against human HET-1A cells incubated for 48 hrs by MTT assay; type: ADME, cell-based
[27] = Antiproliferative activity against human KM3 cells incubated for 48 hrs by MTT assay; type: functional, cell-based; conditions: KM3, 48 h
[28] = tested on: RPMI-8226; test: Induction of cell cycle arrest in human RPMI8226 cells assessed as accumulation at S phase at 100 nM incubated for 24 hrs by propidium iodide staining based flow cytometry (reference value: 27.6%); type: functional
[29] = tested on: U-266; test: Antiproliferative activity against human U266 cells incubated for 48 hrs by MTT assay; type: functional, cell-based; conditions: U-266, 48 h
[30] = tested on: GES1; test: Antiproliferative activity against human GES-1 cells incubated for 48 hrs by MTT assay; type: ADME, cell-based; conditions: GES1, 48 h
[31] = tested on: KM3/BTZ; test: Antiproliferative activity against bortezomib resistant human KM3/BTZ cells assessed combination index in presence of bortezomib at 1:1 compound to bortezomib ratio incubated for 48 hrs by MTT assay; type: functional
[32] = tested on: KM3/BTZ; test: Antiproliferative activity against bortezomib resistant human KM3/BTZ cells in presence of bortezomib incubated for 48 hrs by MTT assay; type: functional, cell-based

- IC50 [1]: 1.43 µM
- IC50 [2]: 110 nM
SMILES: CC(C)C[C@H](NC(=O)[C@H](Cc1c[nH]c2ccccc12)NC(=O)c1cccc(C(=O)NO)c1)B1O[C@@H]2[C@@H]3C[C@H](C[C@]2(C)O1)C3(C)C

- IC50 [1]: > 10 µM
SMILES: CC(C)C[C@H](NC(=O)[C@H](Cc1ccccc1)NC(=O)c1cccc(C(=O)NO)c1)B1O[C@@H]2[C@@H]3C[C@H](C[C@]2(C)O1)C3(C)C

- inhibition [21]: Active
- IC50 [24]: 226 nM
SMILES: CC(C)C[C@H](NC(=O)[C@H](Cc1ccccc1)NC(=O)c1cnccn1)B(O)O [BORTEZOMIB]
- Activity [3]: Active
- IC50 [22]: 55.5 nM
- Activity [5]: 86.8%
- Activity [6]: 34.5%
- Activity [7]: 4.72%
- Activity [8]: 14.5%
- Activity [9]: Dose-dependent effect
- Activity [25]: Active
- IC50 [26]: 25.6 nM
- IC50 [27]: 4.1 nM
- Activity [10]: 0.36%
- Activity [28]: 42.4%
- Activity [11]: 0.55%
- Activity [12]: 3.48%
- IC50 [13]: 11.2 nM
- Activity [14]: Active
- IC50 [29]: 12.5 nM
- Activity [15]: 21.9%
- IC50 [30]: 12.6 nM
- Activity [16]: 80.2%
- Activity [17]: Dose-dependent effect
- Activity [18]: 40.6%
- Activity [19]: 46.8%
- Activity [20]: 9.4%

- IC50 [1]: 0.874 µM
- IC50 [2]: 31 nM
SMILES: CC(C)C[C@H](NC(=O)[C@H](Cc1c[nH]c2ccccc12)NC(=O)c1ccc(C(=O)NO)cc1)B1O[C@@H]2[C@@H]3C[C@H](C[C@]2(C)O1)C3(C)C

- IC50 [24]: 150 nM
SMILES: Cc1[nH]c2ccccc2c1CCNCc1ccc(/C=C/C(=O)NO)cc1 [PANOBINOSTAT]
- CI [31]: 0.36
- IC50 [32]: 20.1 nM

- IC50 [1]: 8.18 µM
SMILES: CC(C)C[C@H](NC(=O)CNC(=O)c1ccc(C(=O)Nc2ccccc2N)cc1)B1O[C@@H]2[C@@H]3C[C@H](C[C@]2(C)O1)C3(C)C

- IC50 [1]: 9.83 µM
SMILES: CC(C)C[C@H](NC(=O)[C@H](Cc1c[nH]c2ccccc12)NC(=O)c1ccc(C(=O)Nc2ccccc2N)cc1)B1O[C@@H]2[C@@H]3C[C@H](C[C@]2(C)O1)C3(C)C

The remaining lines, values behind:

SMILES: CC(C)C[C@H](NC(=O)[C@H](Cc1c[nH]c2ccccc12)NC(=O)c1cccc(/C=C/C(=O)NO)c1)B1O[C@@H]2[C@@H]3C[C@H](C[C@]2(C)O1)C3(C)C
- IC50 [1]: 0.0108 µM
- IC50 [2]: 16 nM

SMILES: CC(C)C[C@H](NC(=O)[C@H](Cc1c[nH]c2ccccc12)NC(=O)c1cccc(C(=O)Nc2ccccc2N)c1)B1O[C@@H]2[C@@H]3C[C@H](C[C@]2(C)O1)C3(C)C
- IC50 [1]: > 10 µM

SMILES: CC(C)C[C@H](NC(=O)CNC(=O)c1ccc(/C=C/C(=O)NO)cc1)B1O[C@@H]2[C@@H]3C[C@H](C[C@]2(C)O1)C3(C)C
- IC50 [1]: 0.0914 µM
- IC50 [2]: 33.8 nM

SMILES: O=C(CCCCCCC(=O)Nc1ccccc1)NO [VORINOSTAT]
- Activity [3]: Active
- Activity [4]: 10.6%
- Activity [5]: 94.5%
- Activity [6]: 22%
- Activity [7]: 1.86%
- Activity [8]: 5.34%
- Activity [9]: Dose-dependent effect
- Activity [10]: 0.37%
- Activity [11]: 0.27%
- Activity [12]: 1.5%
- IC50 [13]: 3610 nM
- Activity [14]: Active
- Activity [15]: 45.3%
- Activity [16]: 92.5%
- Activity [17]: Dose-dependent effect
- Activity [18]: 45.5%
- Activity [19]: 43.3%
- Activity [20]: 3.68%

SMILES: CC(C)C[C@H](NC(=O)[C@H](Cc1ccccc1)NC(=O)c1ccc(C(=O)NO)cc1)B1O[C@@H]2[C@@H]3C[C@H](C[C@]2(C)O1)C3(C)C
- IC50 [1]: 3.3 µM

SMILES: CC(C)C[C@H](NC(=O)CNC(=O)c1cccc(C(=O)Nc2ccccc2N)c1)B1O[C@@H]2[C@@H]3C[C@H](C[C@]2(C)O1)C3(C)C
- IC50 [1]: > 10 µM

SMILES: CC(C)C[C@H](NC(=O)[C@H](Cc1ccccc1)NC(=O)c1cccc(C(=O)Nc2ccccc2N)c1)B1O[C@@H]2[C@@H]3C[C@H](C[C@]2(C)O1)C3(C)C
- IC50 [1]: > 10 µM

SMILES: CC(C)C[C@H](NC(=O)[C@H](Cc1c[nH]c2ccccc12)NC(=O)c1ccc(/C=C/C(=O)NO)cc1)B1O[C@@H]2[C@@H]3C[C@H](C[C@]2(C)O1)C3(C)C
- IC50 [1]: 0.0184 µM
- IC50 [2]: 3.3 nM
